The source of these data is patent US20210137938A1, “NUPR1 INHIBITION FOR TREATING CANCER” (INSTITUT NATIONAL DE SANTE ET DE LA RECHERCHE MEDICALE …, priority 2018, published 2021).

pIC50, pKd: −log10 of the molar value.

As usually defined, the pKd is the Kd on a negative log10 scale, so that one unit is a factor of ten. By pIC50 is commonly meant −log10 of the IC50, conventionally taken in molar units. Low values mean a high IC50, high ones a low IC50.

Series [1] has as its system 02.063, LIPC, Foie8b and HN14 cells. In words: Chemosensitivity / PrestoBlue cell viability, four primary pancreatic cancer-derived cells. Conditions: 72 h, 0 to 100 μM, FIG. 1. The format is cell-based, human. The procedure: The biological effect in vitro of the compounds A, B and C were then studied on four well characterized primary pancreatic cancer-derived cells 02.063 and LIPC (Basal subtype), Foie8b (derived from a liver metastasis) and HN14 (Classical subtype).
(§1) The cells were screened for chemosensitivity to these compounds for 72 h with increasing concentrations of the compounds ranging from 0 to 100 μM in 96-well plates. Trifluoperazine was used as the reference compound. Each experiment was performed in triplicate and repeated at least three times. Cell viability was estimated after addition of the PrestoBlue cell viability reagent (Life Technologies) for 3 h.

A further series deals with 02.063 cells xenograft. The series is described as follows: Mice xenografted with 02.063 cells, tumor volume. The format is in vivo, NMRI-Nude mice. The procedure: FIG. 2: Variation of the size the tumor of mice xenografted with 02.063 cells in the absence of any treatment (control—administration of a volume of vehicle solution equivalent to the volume of treatment administered to the treated mice) or treated with compound C of the invention (daily treatment of 30 days with 5 mg/kg of this compound). Day 0 on this figure corresponds to the day when the tumors reached 200 mm^3 (so around 1 week after the injection of 15×10^6 cells).
02.063 cells were inoculated subcutaneously (15×10^6 cells) in NMRI-Nude 8-week old mice. When tumors reached 200 mm^3, (around 1 week after the injection), a daily treatment was started for 30 days with 5 mg/kg of the compound C and the control group receiving an equivalent volume of vehicle solution (6 mice in control group, 6 mice treated with compound C).

The target of series [2] is T1, NUPR1 (Homo sapiens, UniProt O60356).
T1 sequence (O60356 1-82): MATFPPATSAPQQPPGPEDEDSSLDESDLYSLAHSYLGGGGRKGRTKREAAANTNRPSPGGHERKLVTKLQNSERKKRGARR
In words: Isothermal titration calorimetry of NUPR1-compound interaction. The settings on record: ITC, 25° C, sodium phosphate 20 mM pH 7.0, 1% DMSO, single binding site model; read-out: dissociation constant (Kd). On the procedure: (c) ITC studies: Target engagement for the different compounds was assessed by isothermal titration calorimetry (the gold standard technique in binding affinity determination), which allowed the thermodynamic characterization of the NUPR1-compound interaction.
Titrations were performed in an AutoiTC200 (MicroCal, Malvern Instruments). A solution of NUPR1 (20 μM, in sodium phosphate 20 mM pH 7.0, 1% DMSO) in the calorimetric cell was titrated with a solution of corresponding compound (200 μM, in sodium phosphate 20 mM pH 7.0, 1% DMSO) located in the injecting syringe.
Because compounds were initially dissolved as concentrated (˜10 mM) stock solutions in pure DMSO, a residual percentage of DMSO was present in the final solutions. […] A standard protocol was employed: 19 titrant injections with 2 μL were programmed with a spacing of 150s, a stirring speed of 750 rpm, and a reference power of 10 μcal/s. From the thermogram (thermal power as a function of time), the binding isotherm (ligand-normalized heats as a function of the molar ratio) was obtained through integration of the individual heat effect associated with each ligand injection. Non-linear least squares regression analysis employing a model considering a single binding site in NUPR1 allowed the estimation of the binding parameters: dissociation constant, biding enthalpy, and stoichiometry.
For orientation: Isothermal titration calorimetry measures the heat released or taken up as one component is titrated into another.

The subject of series [3] is HEPG2 (Hepatocellular carcinoma). The series is described as follows: PrestoBlue cell viability, HEPG2. The format is cell-based. The procedure: as §1
(§2) The effect of compound C was also evaluated by treating cellular lines derived from different tumors with increasing concentrations of this compound. The protocol applied is the same as the one mentioned above for cell lines 02-063, HN14, LIPC and Foie8b.

Series [4] has as its system MiaPaCa-2, ANOR, AOIPC, 02-136, 01-046, NH01, LIPC, HN14, 01-008 and Foie8b cells. The series is described as follows: Chemosensitivity / PrestoBlue cell viability, ten primary pancreatic cancer-derived cells. Type of series: cell-based. Conditions: 72 h, 0 to 100 μM, FIG. 4. The source says:
The biological effect in vitro of the compounds C, I, F, K, L, M, N, D, G and J were studied on ten well characterized primary pancreatic cancer-derived cells: MiaPaCa-2 (Classical subtype), ANOR (Classical subtype), AOIPC (Basal subtype), 02-136 (Basal subtype), 01-046 (Classical subtype), NH01 (Classical subtype), LIPC (Basal subtype), HN14 (Classical subtype), 01-008 (Basal subtype) and Foie8b (derived from a liver metastasis).
The protocol applies was identical to the one previously indicated, i.e.:
The cells were screened for chemosensitivity to these compounds for 72 h with increasing concentrations of the compounds ranging from 0 to 100 μM in 96-well plates. Each experiment was performed in triplicate and repeated at least three times. Cell viability was estimated after addition of the PrestoBlue cell viability reagent (Life Technologies) for 3 h.

The nature of series [5]: Neurological effect on treated mice. Type of series: in vivo. The procedure:
Accordingly, Trifluoperazine seemed an interesting compound as anti-cancer agent. However, as indicated in the examples of the present application, increasingly high doses of Trifluoperazine tested in vivo led to neurological effects on immunodeficient mice implanted with human pancreatic cancer cells-derived xenografts.
A similar experiment was performed with Trifluoperazine (data not shown). […] Although relatively efficient as an anticancer agent, the neurological effect found in mice left Trifluoperazine unusable in clinics.

The subject of series [6] is MDA-MB-231 (Breast cancer). In words: PrestoBlue cell viability, MDA-MB-231. Type of series: cell-based. Conditions: Homo sapiens, MDA-MB-231, 72 h. The procedure: as §1, §2
The target in series [7] is T1, NUPR1. Conditions: Neira et al., 2017; cited from earlier work.
Where [8] appears, read: 5 mg/kg daily for 30 days, from tumors of 200 mm^3, FIG. 2.

Turning to `CN(C)CCN1CCN(CCCN2c3ccccc3Sc3ccc(C(F)(F)F)cc32)CC1` [Compound C], in series [1], the “cell death induced / efficiency to kill pancreatic cancer cells, compared with Trifluoperazine” value was “most efficient compound to kill the pancreatic cancer cells” and the “efficiency relative to Trifluoperazine (times more efficient)” value is on record as “around 10 times”. Also, in the series on 02.063 cells xenograft (setting [8]), the “size of the tumors” value was “decreased progressively to almost disappear after 20 days of treatment” and the tumor growth entry is on record as “stopped the growth almost immediately”. Moreover, on NUPR1 [2], the pKd was 5.68. The same molecule showed a pIC50 in series [3] (HEPG2, 72 h) of 6.60. This molecule also gave a pIC50 in series [3] (Homo sapiens, HepG2, 72 h) of 6.60. The “induction of cell death in the different cancer cell lines” value in series [4] was “particularly efficient (low IC50)”. Moreover, the neurological effect result in series [5] (treatment of xenografted mice, including chronic treatment with 10 mg/kg) is listed as “did not show any appreciable neurological effect”. In addition, the pIC50 in series [6] was 4.85.
On to `CCN1CCN(CCCN2c3ccccc3Sc3ccc(C(F)(F)F)cc32)CC1` [Compound A], for which the “cell death induced / efficiency to kill pancreatic cancer cells, compared with Trifluoperazine” value in series [1] is recorded as “close to that induced by Trifluoperazine”. The pKd on NUPR1 [2] is 4.96.
As for `CN1CCN(CCCN2c3ccccc3Sc3ccc(C(F)(F)F)cc32)CC1` [Trifluoperazine, reference compound], in the series with 02.063 cells xenograft (higher dose, data not shown), the tumor growth entry was “rapidly, and almost completely, stopped”. Also, the “tumor volume increase compared to the control” value in the series with 02.063 cells xenograft (lowest dose, same period, data not shown) stood at 50%. For the same molecule, the neurological effect result in series [5] (increasingly high doses, xenografted immunodeficient mice) is reported as “neurological effect on treated mice such has lethargy”. Also, on NUPR1 [7], the “dissociation constant between NUPR1 and Trifluoperazine” value is recorded as “low micromolar range”.
With `CCN1CCN(CCCN2c3ccccc3Sc3ccc(C(F)(F)F)cc32)CC1` [Compound B], the pKd on NUPR1 [2] was 5.15.
